Data: patent US11529337B2, “Method of treating pain” (VERTEX PHARMACEUTICALS INCORPORATED, priority 2018, dated 2022)

Columns and labels:
[1] = system: patients with chronic pain caused by small fiber neuropathy; experiment: Randomized, double-blind, placebo-controlled 6-week study in patients with chronic pain caused by small fiber neuropathy (Example 5); assay type: in vivo, human
Description: A randomized, double-blind, placebo-controlled, 6-week study that evaluated treatment with Compound 1 (Treatment Arm) or placebo (Placebo Arm) in patients with chronic pain caused by small fiber neuropathy was conducted.
Males and females between the ages of 18 and 80 years, inclusive, with small fiber neuropathy.
Compound 1 was administered orally in 250 mg capsules, prepared as described in Example 2.
The study included a 7-day run-in period, followed a 6-week treatment period. The subjects were randomized to a Placebo Arm (43 subjects) and a Treatment Arm (46 subjects) between the run-in period and the treatment period.
During the run-in period, subjects reported their average pain and sleep interference to establish a baseline NRS pain score and DSIS score.
During the treatment period, Compound 1 was administered to the subjects in the Treatment Arm every 24 hours (q24 h) in a dose of 1250 mg. Subjects in the Placebo Arm received placebo capsules.
11-point Numeric Rating Scale (NRS). Pain intensity was evaluated using an 11-point NRS. The 11-point scale ranged from 0 (no pain) to 10 (worst imaginable pain). From Day −7 through Week 6, subjects reported their average daily pain during the last 24 hours on the NRS via electronic diary.
Daily Sleep Interference Scale (DSIS). Subjects reported pain interference with sleep using an 11-point scale ranging from 0 (none) to 10 (severe). […]

[2] = system: subjects with pain following bunionectomy; experiment: Safety and tolerability evaluations in the bunionectomy study (Example 3)
Description: Safety evaluations included adverse events, clinical laboratory assessments, clinical evaluation of vital signs, electrocardiograms, and physical examinations.

[3] = system: subjects with pain following bunionectomy; experiment: Randomized, double-blind, placebo-controlled study of efficacy in subjects with pain following bunionectomy (Example 3); assay type: in vivo, human
Description: A randomized, double-blind, placebo-controlled, 3-arm, parallel-design study to evaluate the effect of Compound 1 on acute surgical pain was conducted. Bunionectomy is a well-established, multi-dose, surgical, acute pain model. A randomized, double-blind study design was selected to avoid observer bias and reduce symptoms or outcomes arising from the subjects' knowledge of treatment. A parallel design was considered most appropriate given the acute nature of bunionectomy surgery.
Male and female patients between the ages of 18 and 65 years (inclusive) with pain that is ≥4 on an 11-point Numeric Pain Rating Scale (NPRS) and is moderate or severe on the Verbal Categorical Rating Scale (VRS) after bunionectomy.
Investigational Drug: Compound 1. The investigational drug was administered orally in 250 mg capsules, prepared as described in Example 2. The investigational drug was administered every 12 hours (q12 h). […]
On the 11-point NPRS, a score of 0 denoted no pain, and a score of 10 denoted the worst pain intensity imaginable. […] Pain intensity also was recorded on the NPRS immediately before each administration of rescue medication. Pain intensity scores that were collected within 4 hours after a dose of rescue medication were taken as missing, and the missing values were imputed as the intensity recorded immediately before the administration of rescue medication. […]

Structure (SMILES): Cc1cc(F)ccc1Oc1cc(C(F)(F)F)ccc1C(=O)Nc1ccn(COP(=O)(O)O)c(=O)c1 [Compound 1, (4-(2-(4-fluoro-2-methylphenoxy)-4-(trifluoromethyl)benzamido)-2-oxopyridin-1(2H)-yl)methyl dihydrogen phosphate]
- Subjects with ≥30% reduction in weekly average of daily pain intensity on NRS ([1]; Week 6, total = subjects with data at Week 6): 45.0% (18/40)
- Treatment difference in NRS pain intensity versus placebo at Week 1 ([1]; observed as early as Week 1): greater than 1 point
- Tolerability, in words ([2]; bunionectomy study): generally well tolerated
- Gastrointestinal adverse events ([2]; share of subjects in the arm): 13%
- Relief of acute pain compared to placebo (SPID24), in words ([3]; Investigational Arm versus placebo): statistically significant relief of acute pain compared to placebo
- Subjects who discontinued due to lack of efficacy ([3]; number (percentage) of subjects assigned to the arm): 6 (7.5%)
